Our source for the pest or weed control and melting point values is patent US9199943B2, “2-(poly-substituted aryl)-6-amino-5-halo-4-pyrimidinecarboxylic acids and their use as herbicides” (Dow AgroSciences, LLC., priority 2006, dated 2015).

For data set [1], the system named is ABUTH = velvetleaf (Abutilon theophrasti). Nature of the data set: General preemergence herbicidal activity, velvetleaf. It is filed as in vivo. The note with it: Abutilon theophrasti, pre-emergence, 480 h, pre-emergent, visual score after 20-22 days. An excerpt: (§1) Seeds of the desired test plant species were planted in a soil matrix prepared by mixing a loam soil (43 percent silt, 19 percent clay, and 38 percent sand, with a pH of about 8.1 and an organic matter content of about 1.5 percent) and sand in a 70 to 30 ratio. The soil matrix was contained in plastic pots with a surface area of 113 square centimeters. When required to ensure good germination and healthy plants, a fungicide treatment and/or other chemical or physical treatment was applied. A weighed amount, determined by the highest rate to be tested, of each test compound was placed in a 25 mL glass vial and was dissolved in 6 mL of a 97:3 v/v (volume/volume) mixture of acetone and DMSO to obtain concentrated stock solutions. […] The stock solutions obtained were diluted with 18 mL of a 0.1% v/v aqueous solution of Tween® 20 surfactant to obtain spray solutions containing the highest application rate. Additional application rates were obtained by serial dilution of 12 mL of the high rate solution into a solution containing 3 mL of 97:3 v/v mixture of acetone and DMSO and 9 mL of the 0.1% v/v aqueous solution of Tween® 20 surfactant to obtain 1⁄2×, 1⁄4×, 1⁄8× and 1/16× rates of the high rate. Compound requirements are based upon a 12 mL application volume at a rate of 187 L/ha. Formulated compounds were applied to the plant material with an overhead Mandel track sprayer equipped with a […] nozzles calibrated to deliver 187 L/ha over an application area of 0.503 square meters at a spray height of 18 inches (43 cm) above the soil surface. Control plants were sprayed in the same manner with the solvent blank. The treated pots and control pots were placed in a greenhouse maintained with an approximate 15 hour photoperiod and temperatures of about 23-29° C. during the day and 22-28° C. during the night. Nutrients and water were added on a regular basis and supplemental lighting was provided with overhead metal halide 1000-Watt lamps as necessary. The water was added by top-irrigation. After 20-22 days, the condition of the test plants that germinated and grew as compared with that of the untreated plants that emerged and grew was determined visually and scored on a scale of 0 to 100 percent where 0 corresponds to no injury and 100 corresponds to complete kill or no emergence.

Data set [2] has the same test system. Nature of the data set: General postemergence herbicidal activity, velvetleaf. It is filed as in vivo. The note with it: Abutilon theophrasti, post-emergence, 336 h; post-emergent, 140 g ai/ha, visual score after 14 days (0 no injury, 100 complete kill). The procedure: (§2) Seeds or nutlets of the desired test plant species were planted in Sun Gro MetroMix® 306 planting mixture, which typically has a pH of 6.0 to 6.8 and an organic matter content of about 30 percent, in plastic pots with a surface area of 64 square centimeters. When required to ensure good germination and healthy plants, a fungicide treatment and/or other chemical or physical treatment was applied. The plants were grown for 7-21 days in a greenhouse with an approximate 15 hour photoperiod which was maintained at about 23-29° C. during the day and 22-28° C. during the night. Nutrients and water were added on a regular basis and supplemental lighting was provided with overhead metal halide 1000-Watt lamps as necessary. The plants were employed for testing when they reached the first or second true leaf stage.
(§3) A weighed amount, determined by the highest rate to be tested, of each test compound was placed in a 25 mL glass vial and was dissolved in 4 mL of a 97:3 v/v (volume/volume) mixture of acetone and dimethyl sulfoxide (DMSO) to obtain concentrated stock solutions. […] The concentrated stock solutions obtained were diluted with 20 mL of an aqueous mixture containing acetone, water, isopropyl alcohol, DMSO, Atplus 411F crop oil concentrate, and Triton X-155 surfactant in a 48.5:39:10:1.5:1.0:0.02 v/v ratio to obtain spray solutions containing the highest application rates. Additional application rates were obtained by serial dilution of 12 mL of the high rate solution into a solution containing 2 mL of 97:3 v/v (volume/volume) mixture of acetone and dimethyl sulfoxide (DMSO) and 10 mL of an aqueous mixture containing acetone, water, isopropyl alcohol, DMSO, Atplus 411F crop oil concentrate, and Triton X-155 surfactant in a 48.5:39:10:1.5:1.0:0.02 v/v ratio to obtain ½×, ¼×, ⅛× and 1/16× rates of the high rate. Compound requirements are based upon a 12 mL application volume at a rate of 187 L/ha. Formulated compounds were applied to the plant material with an overhead Mandel track sprayer equipped with a 8002E nozzles calibrated to deliver 187 L/ha over an application area of 0.503 square meters at a spray height of 18 inches (43 cm) above the average plant canopy height. Control plants were sprayed in the same manner with the solvent blank.
(§4) The treated plants and control plants were placed in a greenhouse as described above and watered by sub-irrigation to prevent wash-off of the test compounds. After 14 days, the condition of the test plants as compared with that of the untreated plants was determined visually and scored on a scale of 0 to 100 percent where 0 corresponds to no injury and 100 corresponds to complete kill.
(§5) By applying the well-accepted probit analysis as described by J. Berkson in Journal of the […], 48, 565 (1953) and by D. Finney in “Probit Analysis” Cambridge University Press (1952), the above data can be used to calculate GR50 and GR80 values, which are defined as growth reduction factors that correspond to the effective dose of herbicide required to kill or control 50 percent or 80 percent, respectively, of a target plant.

The subject of data set [3] is CHEAL = lambsquarter (Chenopodium album). Nature of the data set: General postemergence herbicidal activity, lambsquarter. It is filed as in vivo. Conditions: Chenopodium album, post-emergence, 336 h; post-emergent, 140 g ai/ha, visual score after 14 days (0 no injury, 100 complete kill). The procedure: as §2, §3, §4, §5
The subject of data set [4] is HELAN = sunflower (Helianthus annuus). The data set is described as follows: General preemergence herbicidal activity, sunflower. The class given is in vivo. Conditions: Helianthus annuus, pre-emergence, 480 h, pre-emergent, visual score after 20-22 days.
Description: as §1

Data set [5] has as its system HELAN = sunflower (Helainthus annuus). Nature of the data set: General postemergence herbicidal activity, sunflower. Conditions: post-emergence, 336 h; post-emergent, 140 g ai/ha, visual score after 14 days (0 no injury, 100 complete kill). The class given is in vivo. The procedure: as §2, §3, §4, §5
Data set [6] deals with CHEAL = lambsquarter (Chenopodium album). Nature of the data set: General preemergence herbicidal activity, lambsquarter. Conditions: Chenopodium album, pre-emergence, 480 h, pre-emergent, visual score after 20-22 days. The class given is in vivo.
Description: as §1

SMILES strings stand for the structures.

With `CCOc1c(Cl)ccc(-c2nc(N)c(Cl)c(C(=O)O)n2)c1F` [Compound 19, 6-Amino-5-chloro-2-(4-chloro-3-ethoxy-2-fluorophenyl)pyrimidine-4-carboxylic acid], the melting point lay in the range of 132 to 134 °C. Moreover, the pest or weed control at 280 g/ha in data set [1] (280 g ai/ha) stood at 80%. Moreover, in data set [2], the pest or weed control at 140 g/ha stood at 95%. In data set [3], the pest or weed control at 140 g/ha came out at 90%. Also, the pest or weed control at 280 g/ha in data set [4] (280 g ai/ha) turned out to be 90%. The same compound came in with a pest or weed control at 140 g/ha in data set [5] of 95%. The compound further registered a pest or weed control at 280 g/ha in data set [6] (280 g ai/ha) of 75%.
For the compound `COC(=O)c1nc(-c2ccc(Cl)c(C)c2F)nc(N)c1Cl` [Compound 11, 6-Amino-5-chloro-2-(4-chloro-2-fluoro-3-methylphenyl)pyrimidine-4-carboxylic acid methyl ester], the melting point lay in the range of 166 to 168 °C. Also, the pest or weed control at 140 g/ha in data set [1] (140 g ai/ha) came out at 100%. Also, in data set [2], the pest or weed control at 140 g/ha is 95%. Also, the pest or weed control at 140 g/ha in data set [3] turned out to be 95%. In addition, the pest or weed control at 140 g/ha in data set [4] (140 g ai/ha) was 100%. Further, the pest or weed control at 140 g/ha in data set [5] amounted to 100%. The same compound registered a pest or weed control at 140 g/ha in data set [6] (140 g ai/ha) of 60%.

For orientation: pest or weed control means the degree to which the test organism was suppressed or injured, in per cent. Low readings indicate weak suppression, high ones strong suppression. Broadly, the melting point is the temperature, or range, at which the solid turns liquid.
